# Laboratory results: US5801178A, “Aniline derivative having polyunsaturated fatty acid residue and use thereof” (Nippon Shoji Kaish Ltd., priority 1995, dated 1998)
# Experiments:
# [1] = tested on: ACAT derived from rat liver; test: Inhibitory activity against ACAT derived from rat liver microsome; format: biochemical; conditions: pH 7.4, 37° C., 30 minutes
# Experimental: Inhibitory activity against ACAT derived from rat liver microsome
# (§1) Using, as an enzyme source, the microsomal fractions prepared from rat liver in the manner described below under Preparation of Microsome, the inhibitory activity against ACAT in the microsome fractions was determined as in the following. The compound of the present invention was dissolved in dimethyl sulfoxide and used as a sample solution. [1-^14 C] […] Ethanol (1 ml) was added to stop the reaction, and n-hexane (4.5 ml) was added. The reaction mixture was centrifuged at 2,000 rpm for 2 minutes and the upper n-hexane layer was separated and recovered, whereby cholesterol oleate (reaction product) was extracted. n-Hexane was evaporated with a nitrogen gas and the residue was re-dissolved dissolved in n-hexane (50 μl), which was used as a sample for thin-layer chromatography. […] After developing, the spot of cholesterol oleate was colored with iodine. The spot was cut out and dissolved in a xylene scintillator (Aquasol-2, Daiichi Pure Chemicals Co., Ltd.). The amount of cholesterol oleate was determined using a liquid scintillation counter.
# The liver was removed from a fasted rat and thoroughly perfused with 0.25M sucrose solution. The liver was weighed, minced with scissors or razor and placed in a Teflon homogenizer. The liver was homogenized with 9 volumes [9 ml per g (wet weight) of liver] of 0.25M sucrose solution or 50 mM Tris-HCl buffer (pH 7.5) containing 0.25M sucrose and 5 mM MgCl2. The homogenate was centrifuged at 8,000-10,000 g for 10-15 minutes. The obtained supernatant was centrifuged at 105,000 g for 60-90 minutes. The sediment obtained from this centrifugation was suspended in 150 mM potassium phosphate buffer (pH 7.4) to give a microsomal fraction.
# [2] = target: T1, ACAT derived from human macrophage (Homo sapiens, UniProt P35610); test: Inhibitory activity against ACAT derived from human macrophage (microsomes of TPA-differentiated U937 cells); format: biochemical; conditions: for Selectivity: Table 1, rat liver ACAT IC50 / human macrophage ACAT IC50; for IC50: human macrophage (U937/TPA) microsome, pH 7.4, 37° C., 30 minutes; for selectivity (times greater, human macrophage ACAT vs rat liver ACAT): linoleoylamide derivatives
# T1 construct: Using, as an enzyme source, microsomal fractions prepared in the manner described below under Preparation of Microsome from U937 cells; endogenous in cells; host or cells: U937 cells differentiated with TPA, microsomal fraction
# T1 sequence (P35610 1-550): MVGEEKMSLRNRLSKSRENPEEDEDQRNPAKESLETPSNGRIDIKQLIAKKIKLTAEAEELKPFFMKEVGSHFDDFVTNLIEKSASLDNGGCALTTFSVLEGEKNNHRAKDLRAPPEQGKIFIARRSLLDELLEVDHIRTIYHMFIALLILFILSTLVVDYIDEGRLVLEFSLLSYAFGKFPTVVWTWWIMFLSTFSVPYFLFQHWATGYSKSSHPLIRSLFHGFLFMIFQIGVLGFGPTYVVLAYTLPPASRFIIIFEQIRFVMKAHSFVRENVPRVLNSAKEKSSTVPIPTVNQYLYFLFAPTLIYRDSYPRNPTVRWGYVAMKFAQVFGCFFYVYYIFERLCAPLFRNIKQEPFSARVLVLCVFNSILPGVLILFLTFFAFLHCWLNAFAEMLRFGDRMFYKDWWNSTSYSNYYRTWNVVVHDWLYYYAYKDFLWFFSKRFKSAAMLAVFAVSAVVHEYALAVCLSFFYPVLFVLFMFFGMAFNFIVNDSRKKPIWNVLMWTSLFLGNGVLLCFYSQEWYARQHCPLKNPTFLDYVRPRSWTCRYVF
# Experimental: Inhibitory activity against ACAT derived from human macrophage
# as §1, with “source,” for “source, the”, “prepared” for “prepared from rat liver”, “Microsome from U937 cells [human monocyte-derived cells known to differentiate into macrophages by the addition of TPA (12-O-tetradecanoylphorbol 13-acetate)] differentiated with TPA,” for “Microsome,”, “re-dissolved” for “re-dissolved dissolved”, “with” for “using”
# The cells thus scraped and the culture solution were centrifuged at 3,000 rpm for 5 minutes, and the cell fractions obtained as precipitate were once freezed at -70° C. and preserved. The cells preserved at -70° C. were thawed and homogenized at 4° C. in a Teflon homogenizer. The homogenate was centrifuged at 12,000 g for 15 minutes. The precipitate fractions containing nuclea and mitochondria were removed and the obtained supernatant was further centrifuged at 100,000 g for 60 minutes. The supernatant was discarded, and the obtained precipitate fractions were suspended in 150 mM potassium phosphate buffer (pH 7.4) and used as a microsomal fraction.
# [3] = Reduction of cholesterol in blood of cholesterol-loaded rats; format: in vivo, Male slc:SD (SPF) rats; conditions: serum total cholesterol; 90 mg/kg/day orally, five days; average of 8 rats; control taken as 100%
# Source text: Reduction of cholesterol in blood of rats
# Male slc:SD (SPF) rats (4 weeks of age weighing 70-90 g, Japan SLC Inc.) were randomly divided into 8 per group and bred for 3 days on a normal diet (solid diet for test animals, MF, manufactured by Oriental Yeast CO., LTD.). Then, the aforementioned diet supplemented with 5% cholesterol, 10% olive oil and 0.5% cholic acid was freely fed for 10 days. During the last five days, the test compound (Compounds 3-6, 8, 11 and 12) suspended in 0.5% aqueous methylcellulose solution was forcibly administered orally once a day in a dose of 10 ml/kg which contains 90 mg/kg/day of the test compound (total dose of the test compound being 450 mg/kg). The rats were fasted for 16 hours after the final administration and etherized. The blood was taken from the abdominal aorta, and serum was separated by centrifugation to determine the total cholesterol content in the serum. The control group was administered with 0.5% aqueous methylcellulose solution instead of the test compound suspended in 0.5% aqueous methylcellulose solution.
# * is an average of 8 rats per group based on the cholesterol content in
# blood of control which was taken as 100%.
Compound,IC50 [1],Selectivity [2],IC50 [2],"selectivity (times greater, human macrophage ACAT vs rat liver ACAT) [2]",ACAT inhibitory activity (in words) ([2]; human macrophage ACAT),"Reduction of cholesterol in cholesterol-loaded rats, %* [3]"
"CCC=CCC=CCC=CCC=CCC=CCCCC(=O)Nc1c(C)cccc1C [Compound 7, N-(2,6-dimethylphenyl)-5,8,11,14,17-eicosapentaenamide]",4.25 µM,70.8,0.06 µM,,,
"CCC=CCC=CCC=CCC=CCC=CCC=CCCC(=O)Nc1c(CC)cccc1CC [Compound 10, N-(2,6-diethylphenyl)-4,7,10,13,16,19-docosahexaenamide]",11.5 µM,395,0.029 µM,,,
"CCC=CCC=CCC=CCC=CCC=CCCCC(=O)Nc1c(OC)cc(OC)cc1OC [Compound 1, N-(2,4,6-trimethoxyphenyl)-5,8,11,14,17-eicosapentaenamide]",13.4 µM,49.6,0.27 µM,,,
"CCC=CCC=CCC=CCC=CCC=CCCCC(=O)Nc1ccc(CNC(=O)Nc2c(C(C)C)cccc2C(C)C)cc1 [Compound 19, N-{4-(5,8,11,14,17-eicosapentaenoylamino)phenylmethyl}-N'-(2,6-diisopropylphenyl)urea]",> 500 µM,> 3333,0.15 µM,,,
"CCC=CCC=CCC=CCC=CCC=CCCCC(=O)NC1CCCCC1NC(=O)Nc1c(C(C)C)cccc1C(C)C (centres unmarked) [Compound 17, N-(5,8,11,14,17-eocosapentaenoyl)-N'-(2,6-diisopropylanilinocarbonyl)-1,2-diaminocyclohexane]",> 500 µM,> 269,1.86 µM,,,
"CCC=CCC=CCC=CCC=CCC=CCCCC(=O)N1CCN(C(=O)Nc2c(C(C)C)cccc2C(C)C)CC1 [Compound 15, N-(5,8,11,14,17-eicosapentaenoyl)-N'-(2,6-diisopropylanilinocarbonyl)piperazine]",> 500 µM,> 463,1.08 µM,,,
"CCC=CCC=CCC=CCC=CCC=CCCCC(=O)Nc1c(CC)cccc1CC [Compound 9, N-(2,6-diethylphenyl)-5,8,11,14,17-eicosapentaenamide]",1.08 µM,60,0.018 µM,,,
"CCC=CCC=CCC=CCC=CCC=CCC=CCCC(=O)NCCNC(=O)Nc1c(C(C)C)cccc1C(C)C [Compound 14, N-(4,7,10,13,16,19-docosahexaenoyl)-N'-(2,6-diisopropylanilinocarbonyl)ethylenediamine]",> 500 µM,> 111,4.52 µM,,,
"CCC=CCC=CCC=CCC=CCC=CCCCC(=O)NCCNC(=O)Nc1c(C(C)C)cccc1C(C)C [Compound 13, N-(5,8,11,14,17-eicosapentaenoyl)-N'-(2,6-diisopropylanilinocarbonyl)ethylenediamine]",> 500 µM,> 746,0.67 µM,,,
"CCC=CCC=CCC=CCC=CCC=CCC=CCCC(=O)N1CCN(C(=O)Nc2c(C(C)C)cccc2C(C)C)CC1 [Compound 16, N-(4,7,10,13,16,19-docosahexaenoyl)-N'-(2,6-diisopropylanilinocarbonyl)piperazine]",> 500 µM,> 725,0.69 µM,,,
"CCC=CCC=CCC=CCC=CCC=CCC=CCCC(=O)Nc1c(OC)cc(OC)cc1OC [Compound 2, N-(2,4,6-trimethoxyphenyl)-4,7,10,13,16,19-docosahexaenamide]",20.3 µM,40.6,0.5 µM,,,
"CCC=CCC=CCC=CCC=CCC=CCC=CCCC(=O)NC1CCCCC1NC(=O)Nc1c(C(C)C)cccc1C(C)C (centres unmarked) [Compound 18, N-(4,7,10,13,16,19-docosahexaenoyl)-N'-(2,6-diisopropylanilinocarbonyl)-1,2-diaminocyclohexane]",> 500 µM,> 190,2.63 µM,,,
"CCC=CCC=CCC=CCC=CCC=CCC=CCCC(=O)Nc1c(C(C)C)cccc1C(C)C [Compound 12, N-(2,6-diisopropylphenyl)-4,7,10,13,16,19-docosahexaenamide]",52.7 µM,,,,,64%

# More lines, main results first:
IC50 [1],Selectivity [2],IC50 [2],"selectivity (times greater, human macrophage ACAT vs rat liver ACAT) [2]",ACAT inhibitory activity (in words) ([2]; human macrophage ACAT),Compound,"Reduction of cholesterol in cholesterol-loaded rats, %* [3]"
> 500 µM,>27.9,17.9 µM,,,"CCC=CCC=CCC=CCC=CCC=CCC=CCCC(=O)NCc1ccc(NC(=O)Nc2c(C(C)C)cccc2C(C)C)cc1 [Compound 22, N-{4-(4,7,10,13,16,19-docosahexaenoylaminomethyl)phenyl}-N'-(2,6-diisopropylphenyl)urea]",
20.2 µM,18.4,1.1 µM,,,"CCC=CCC=CCC=CCC=CCC=CCC=CCCC(=O)Nc1ccc(CNC(=O)Nc2c(C(C)C)cccc2C(C)C)cc1 [Compound 20, N-{4-(4,7,10,13,16,19-docosahexaenoylamino)phenylmethyl}-N'-(2,6-diisopropylphenyl)urea]",
0.1 µM,,0.02 µM,about five times,,CCCCC/C=C\C/C=C\CCCCCCCC(=O)Nc1c(CC)cccc1CC [reference compound],
0.87 µM,,0.67 µM,scarce selectivity,,CCCCC/C=C\C/C=C\CCCCCCCC(=O)Nc1c(OC)cc(OC)cc1OC [reference compound],
0.14 µM,,0.07 µM,about twice,,CCCCCC=CCC=CCCCCCCCC(=O)Nc1c(C)cccc1C [reference compound],
≥ 500 µM,,4.61 µM,,low activity,CCCCC/C=C\C/C=C\CCCCCCCC(=O)N1CCN(C(=O)Nc2c(C(C)C)cccc2C(C)C)CC1 [reference compound],
> 500 µM,>75.3,6.64 µM,,,"CCC=CCC=CCC=CCC=CCC=CCCCC(=O)NCc1ccc(NC(=O)Nc2c(C(C)C)cccc2C(C)C)cc1 [Compound 21, N-{4-(5,8,11,14,17-eicosapentaenoylaminomethyl)phenyl}-N'-(2,6-diisopropylphenyl)urea]",
0.09 µM,,0.006 µM,about fifteen times,,CCCCC/C=C\C/C=C\CCCCCCCC(=O)Nc1c(C(C)C)cccc1C(C)C [reference compound],
